# Laboratory results from patent US20200038438A1, “ANGSTROM SILVER INJECTION FOR CANCER INHIBITION, PREPARATION METHOD AND APPLICATION THEREOF” (Shenzhen AMCAN Medical Biotechnology Limited, priority 2018, published 2020).
# “And” between values parts separate entries of the source, which are not always exact repeats. Equal values may be shown once.
# Key:
# [1] = system: tumor tissue cell, Liver cancer; experiment: 3D drug susceptibility detection (three-dimensional co-culture system), liver cancer patient; format: cell-based, human; settings: person
# Source text: A second exemplary embodiment is shown below. • 3D drug susceptibility detection result
# [2] = system: tumor tissue cell, Lung Tumor; experiment: 3D drug susceptibility detection (three-dimensional co-culture system), lung tumor patient; format: cell-based, human; settings: serial No. 0018
# Source text: A fourth exemplary embodiment is shown below. • 3D drug susceptibility detection result
# tumor tissue cell, NSCLC = experiment: 3D drug susceptibility detection (three-dimensional co-culture system), NSCLC patient; format: cell-based, human
# Source text: A third exemplary embodiment is shown below. • 3D drug susceptibility detection result
# [3] = system: human non-small cell lung cancer cells A549; experiment: CellTiter-Glo cell viability, 72 hours; format: cell-based; settings: duplicate wells
# Source text: (§1) A first exemplary embodiment is shown a detection of the angstrom silver on a proliferation influence of human non-small cell lung cancer cells A549 and human hepatocellular carcinoma cells HepG2.
# (§2) Reagents and consumables shown below: 1. HepG2, provided by HD Biosciences (Shanghai) Co., Ltd., and passed a mycoplasma detection; 2, F 12K culture medium, American Gibco, Art. No.: 21127-022; 3. EMEM culture medium, American ATCC, Art. No.: 30-2003; 4. Fetal bovine serum (FBS), American Hyclone, Art. No.: CH30160.03; 5. Penicillin-streptomycin liquid, American Invitrogen, Art. No.: CH15140-122; 6. DG-5 (25 Ang) and DG-5 solvents, DG-6 (25 Ang) and DG-6 solvents respectively provided by Shenzhen AMCAN Medical Biotechnology Limited; 7. […] DMSO, American Sigma, Art. No.: D4540; 9. 96-well cell culture plate, American Corning, Art. No.: 3610; 10. CellTiter-Glo Luminescent Cell Viability Assay, American Promega, Art. No.: G7571; 11. Plate reader, American Perkin Elmer, EnVision Multilabel Plate Reader.
# (§3) Cell culture medium: 1. A549 culture medium: including 10% fetal bovine serum and F 12K culture medium with 100 U penicillin and 100 μg/mL streptomycin; 2. HepG2 culture medium: including 10% fetal bovine serum and EMEM culture medium with 100 U penicillin and 100 μg/mL streptomycin.
# (§4) 3. Only before starting an experiment, in the sterile condition, the prepared dg-5 gradient concentration solution is diluted 2 times by full cell culture medium. At this time, the gradient concentration of a compound to be measured includes 150 ppm, 15 ppm, 1.5 ppm, 0.15 ppm and 0.015 ppm, which is a 2-by-compound solution to be used to treat cells.
# (§5) 4. Only before starting the experiment, in the sterile condition, the prepared dg-5 gradient concentration solution was diluted 100 times by the full cell culture medium. At this time, the gradient concentration of the compound to be measured includes 2 μM, 200 nM, 20 nM, 2 nM and 0.2 nM, which is a 2-by-compound solution to be used to treat cells.
# (§6) 1. The cell is inoculated in a 96-well cell culture plate the day before the treatment of the compound, while an inoculation density is shown in the experimental design above, and an inoculation volume was 100 μL per hole.
# (§7) 2. The next day, the prepared 2-by-compound solution is added to the 96-well cell culture plate according to an arrangement diagram of the compound, and each hole is added to 100 μL.
# (§8) 3. Gently oscillating the 96-well cell culture plate and placing it in a 37° C. incubator to continue cultivating for 72 hours.
# (§9) 4. After reaching a designated incubation time, a prepared reagent is added to the 96-well cell culture plate according to a CellTiterGlo's reagent specification, and then it is fully blended under a room temperature, finally avoid light incubation for 10 minutes.
# (§10) 5. Placing the 96-well cell culture plate in a plate reader to analyze it, and setting it to read chemical luminescence and record data.
# (§11) Readout in each hole needs to be converted to a cell viability. The cell viability can be calculated by the following formula: […]
# [4] = system: human hepatocellular carcinoma cells HepG2; experiment: CellTiter-Glo cell viability, 72 hours; format: cell-based; settings: duplicate wells
# Source text: as §1, §2, §3, §4, §5, §6, §7, §8, §9, §10, §11
SMILES,"drug efficacy, 3D drug susceptibility detection [1]","drug efficacy, 3D drug susceptibility detection [2]","drug efficacy, 3D drug susceptibility detection (tumor tissue cell, NSCLC; serial No. 0015)",further results
CC(=O)O[C@H]1C(=O)[C@@]2(C)[C@H]([C@H](OC(=O)c3ccccc3)[C@]3(O)C[C@H](OC(=O)[C@H](O)[C@@H](NC(=O)c4ccccc4)c4ccccc4)C(C)=C1C3(C)C)[C@]1(OC(C)=O)CO[C@@H]1C[C@@H]2O [paclitaxel],second efficacy,–,–,–
CNC(=O)c1cc(Oc2ccc(NC(=O)Nc3ccc(Cl)c(C(F)(F)F)c3)cc2)ccn1 [sorafenib],Ineffective,–,–,–
N.N.O=C([O-])C1(C(=O)[O-])CCC1.[Pt+2] [carboplatin],Ineffective,–,–,–
C#Cc1cccc(Nc2ncnc3cc(OCCOC)c(OCCOC)cc23)c1 [erlotinib],–,worst group of efficacy,worst group of efficacy,–
COc1cc2ncnc(Nc3ccc(F)c(Cl)c3)c2cc1OCCCN1CCOCC1 [gefitinib],–,worst group of efficacy,worst group of efficacy,–
CC(=O)O[C@@]12CO[C@@H]1C[C@H](O)[C@@]1(C)C(=O)[C@H](O)C3=C(C)[C@@H](OC(=O)[C@H](O)[C@@H](NC(=O)OC(C)(C)C)c4ccccc4)C[C@@](O)([C@@H](OC(=O)c4ccccc4)[C@H]21)C3(C)C [docetaxel],second efficacy,–,–,–
O=c1[nH]cc(F)c(=O)[nH]1 [5-fluorouracil],Ineffective,worst group of efficacy,worst group of efficacy,–
C=CC(=O)Nc1cc(Nc2nccc(-c3cn(C)c4ccccc34)n2)c(OC)cc1N(C)CCN(C)C [AZD9291],–,best group of efficacy,best group of efficacy,–
CN[C@@H]1C[C@H]2O[C@@](C)([C@@H]1OC)n1c3ccccc3c3c4c(c5c6ccccc6n2c5c31)C(=O)NC4 [STSP],–,–,–,"Percentage of cell growth ([3]; A549, 0.1 nM): 124.6% and 126.9%; Percentage of cell growth ([3]; A549, 1 nM): 99.8% and 99.2%; Percentage of cell growth ([3]; A549, 10 nM): 68.8% and 68.5%; Percentage of cell growth ([3]; A549, 100 nM): 28.5%; Percentage of cell growth ([4]; HepG2, 0.1 nM): 109.0% and 103.4%; Percentage of cell growth ([4]; HepG2, 1 nM): 88.4% and 86.2%; Percentage of cell growth ([4]; HepG2, 100 nM): 17.5% and 22.2%; Percentage of cell growth ([4]; HepG2, 1000 nM): 9.7% and 11.2%"
Nc1nc2[nH]cc(CCc3ccc(C(=O)N[C@@H](CCC(=O)O)C(=O)O)cc3)c2c(=O)[nH]1 [pemetrexed],Ineffective,worst group of efficacy,worst group of efficacy,"drug efficacy, 3D drug susceptibility detection (tumor tissue cell, NSCLC; serial No. 0015, listed as permetrexed): very poor efficacy"
Cc1ccc(NC(=O)c2ccc(CN3CCN(C)CC3)cc2)cc1Nc1nccc(-c2cccnc2)n1 [imatinib],better,–,–,–
Nc1ccn([C@@H]2O[C@H](CO)[C@@H](O)C2(F)F)c(=O)n1 [gemcitabine],–,–,best group of efficacy,–
